Experimental data taken from publication PMC10700596 (Nature Communications, 2023).
“And” between values parts separate entries of the source, which are not always exact repeats. Equal values may be shown once. Read-outs that look alike come from different tables or passages of the source.

Assays:
[1] = in vivo; assay type: in vivo, mice; conditions: mice; for CSF concentration, Final / Brain concentration, Final / Plasma concentration, Final: listed as 7827_0016, 10 mg/kg
[2] = target: T1, EP4R (Homo sapiens, UniProt P35408); assay: PRESTO-Tango β-arrestin2 recruitment assay; assay type: cell-based
T1 construct: Tango fusion cassette (only 'tango' is printed); expressed in transfected cells; host or cells: HTLA cells (tTA-dependent luciferase reporter, β-arrestin2-TEV fusion)

[3] = target: T2, prostaglandin D2 (PGD2) receptor (Homo sapiens, UniProt Q9Y5Y4); assay: Functional cAMP production assay, PGD2 receptor; assay type: cell-based
T2 sequence (Q9Y5Y4 1-395): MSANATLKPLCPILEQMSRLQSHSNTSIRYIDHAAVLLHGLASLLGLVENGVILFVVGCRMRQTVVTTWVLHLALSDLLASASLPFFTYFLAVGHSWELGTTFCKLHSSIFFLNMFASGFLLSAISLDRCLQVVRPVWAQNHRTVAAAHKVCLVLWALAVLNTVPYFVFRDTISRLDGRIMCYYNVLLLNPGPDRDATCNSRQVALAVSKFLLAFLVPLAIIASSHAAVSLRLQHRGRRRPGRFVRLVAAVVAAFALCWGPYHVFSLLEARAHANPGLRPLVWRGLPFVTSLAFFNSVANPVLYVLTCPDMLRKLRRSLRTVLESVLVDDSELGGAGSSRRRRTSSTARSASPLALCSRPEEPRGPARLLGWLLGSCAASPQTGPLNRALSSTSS

T1 sequence (P35408 whole entry, the tested form may be a part): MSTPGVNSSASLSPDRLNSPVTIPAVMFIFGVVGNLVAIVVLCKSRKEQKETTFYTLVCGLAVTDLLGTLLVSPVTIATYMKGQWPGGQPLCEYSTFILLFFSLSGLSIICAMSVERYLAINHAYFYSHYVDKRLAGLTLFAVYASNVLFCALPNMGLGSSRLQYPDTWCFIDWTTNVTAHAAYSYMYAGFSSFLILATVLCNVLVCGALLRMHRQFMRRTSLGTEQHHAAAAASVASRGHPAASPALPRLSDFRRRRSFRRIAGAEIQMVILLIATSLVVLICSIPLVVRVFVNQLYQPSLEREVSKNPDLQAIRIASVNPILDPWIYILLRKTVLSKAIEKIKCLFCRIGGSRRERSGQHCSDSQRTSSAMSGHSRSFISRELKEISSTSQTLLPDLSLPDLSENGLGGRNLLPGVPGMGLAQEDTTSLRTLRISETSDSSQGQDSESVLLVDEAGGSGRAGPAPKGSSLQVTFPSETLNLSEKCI

O=C(O)C1CCC2(CC1)CC(Nc1ncnc3[nH]c4c(F)cccc4c13)C2 (stereo not drawn) [Compound 74, OC(=O)C1CCC2(CC(C2)NC=3N=CN=C4NC=5C(F)=CC=CC5C34)CC1]
concentration at 480 min ([1]; male, CD-1, mouse, brain, ip, 10 mg/kg, IP 10 mg/kg, brain, 480 min, mean, read-out: Brain concentrations of cmpd 7827_0016 in mice following IP (10 mg/kg) administration, C): 26.7 ng/g | concentration at 1440 min ([1]; male, CD-1, mouse, brain, ip, 10 mg/kg, IP 10 mg/kg, brain, 1440 min, individual animals, read-out: Brain concentration, Final): 0 ng/g | concentration at 1440 min ([1]; male, CD-1, mouse, brain, ip, 10 mg/kg, IP 10 mg/kg, brain, 1440 min, mean, read-out: Brain concentrations of cmpd 7827_0016 in mice following IP (10 mg/kg) administration, C): 0 ng/g | concentration at 5 min ([1]; male, CD-1, mouse, plasma, ip, 10 mg/kg, IP 10 mg/kg, plasma, 5 min, individual animals, read-out: Plasma concentration, Final): 1340 ng/mL | concentration at 5 min ([1]; male, CD-1, mouse, plasma, ip, 10 mg/kg, IP 10 mg/kg, plasma, 5 min, mean, read-out: Plasma concentrations of cmpd 7827_0016 in mice following IP (10 mg/kg) administration, C): 1150 ng/mL | concentration at 15 min ([1]; male, CD-1, mouse, plasma, ip, 10 mg/kg, IP 10 mg/kg, plasma, 15 min, individual animals, read-out: Plasma concentration, Final): 3720 ng/mL | concentration at 15 min ([1]; male, CD-1, mouse, plasma, ip, 10 mg/kg, IP 10 mg/kg, plasma, 15 min, mean, read-out: Plasma concentrations of cmpd 7827_0016 in mice following IP (10 mg/kg) administration, C): 4580 ng/mL | concentration at 30 min ([1]; male, CD-1, mouse, plasma, ip, 10 mg/kg, IP 10 mg/kg, plasma, 30 min, individual animals, read-out: Plasma concentration, Final): 4610 ng/mL | concentration at 30 min ([1]; male, CD-1, mouse, plasma, ip, 10 mg/kg, IP 10 mg/kg, plasma, 30 min, mean, read-out: Plasma concentrations of cmpd 7827_0016 in mice following IP (10 mg/kg) administration, C): 6390 ng/mL | concentration at 60 min ([1]; male, CD-1, mouse, plasma, ip, 10 mg/kg, IP 10 mg/kg, plasma, 60 min, individual animals, read-out: Plasma concentration, Final): 6620 ng/mL | concentration at 60 min ([1]; male, CD-1, mouse, plasma, ip, 10 mg/kg, IP 10 mg/kg, plasma, 60 min, mean, read-out: Plasma concentrations of cmpd 7827_0016 in mice following IP (10 mg/kg) administration, C): 6670 ng/mL | concentration at 120 min ([1]; male, CD-1, mouse, plasma, ip, 10 mg/kg, IP 10 mg/kg, plasma, 120 min, mean, read-out: Plasma concentrations of cmpd 7827_0016 in mice following IP (10 mg/kg) administration, C): 3050 ng/mL | concentration at 240 min ([1]; male, CD-1, mouse, plasma, ip, 10 mg/kg, IP 10 mg/kg, plasma, 240 min, mean, read-out: Plasma concentrations of cmpd 7827_0016 in mice following IP (10 mg/kg) administration, C): 1220 ng/mL | concentration at 360 min ([1]; male, CD-1, mouse, plasma, ip, 10 mg/kg, IP 10 mg/kg, plasma, 360 min, individual animals, read-out: Plasma concentration, Final): 1220 ng/mL | concentration at 360 min ([1]; male, CD-1, mouse, plasma, ip, 10 mg/kg, IP 10 mg/kg, plasma, 360 min, mean, read-out: Plasma concentrations of cmpd 7827_0016 in mice following IP (10 mg/kg) administration, C): 1110 ng/mL | concentration at 480 min ([1]; male, CD-1, mouse, plasma, ip, 10 mg/kg, IP 10 mg/kg, plasma, 480 min, mean, read-out: Plasma concentrations of cmpd 7827_0016 in mice following IP (10 mg/kg) administration, C): 1230 ng/mL | concentration at 1440 min ([1]; male, CD-1, mouse, plasma, ip, 10 mg/kg, IP 10 mg/kg, plasma, 1440 min, mean, read-out: Plasma concentrations of cmpd 7827_0016 in mice following IP (10 mg/kg) administration, C): 83.4 ng/mL | Cmax ([1]; male, CD-1, mouse, plasma, ip, 10 mg/kg i.p.): 6670 ng/mL | AUC ([1]; male, CD-1, mouse, plasma, ip, 10 mg/kg i.p., read-out: plasma AUC (converted)): 24200 ng·h/mL | CSF concentration, Final ([1]; IP 10 mg/kg, 5 min, individual animals): 0 ng/mL and 47.1 ng/mL | CSF concentration, Final ([1]; IP 10 mg/kg, 15 min, individual animals): 76.0 ng/mL and 109 ng/mL and 26.8 ng/mL | CSF concentration, Final ([1]; IP 10 mg/kg, 30 min, individual animals): 63.1 ng/mL and 31.1 ng/mL and 148 ng/mL | CSF concentration, Final ([1]; IP 10 mg/kg, 60 min, individual animals): 333 ng/mL and 43.7 ng/mL and 98.0 ng/mL | CSF concentration, Final ([1]; IP 10 mg/kg, 120 min, individual animals): 23.6 ng/mL and 138.9 ng/mL and 195.0 ng/mL | CSF concentration, Final ([1]; IP 10 mg/kg, 240 min, individual animals): 8.55 ng/mL and 16.8 ng/mL and 52.8 ng/mL | CSF concentration, Final ([1]; IP 10 mg/kg, 360 min, individual animals): 72.8 ng/mL and 71.4 ng/mL | CSF concentration, Final ([1]; IP 10 mg/kg, 480 min, individual animals): 16.7 ng/mL and 5.28 ng/mL and 0 ng/mL | CSF concentration, Final ([1]; IP 10 mg/kg, 1440 min, individual animals): 32.4 ng/mL and 0 ng/mL | Brain concentration, Final ([1]; IP 10 mg/kg, brain, 5 min, individual animals): 63.0 ng/g and 61.5 ng/g | Brain concentration, Final ([1]; IP 10 mg/kg, brain, 15 min, individual animals): 140 ng/g and 112 ng/g | Brain concentration, Final ([1]; IP 10 mg/kg, brain, 30 min, individual animals): 168 ng/g and 291 ng/g | Brain concentration, Final ([1]; IP 10 mg/kg, brain, 60 min, individual animals): 124 ng/g and 174 ng/g | Brain concentration, Final ([1]; IP 10 mg/kg, brain, 120 min, individual animals): 40.2 ng/g and 117 ng/g and 89.0 ng/g | Brain concentration, Final ([1]; IP 10 mg/kg, brain, 240 min, individual animals): 26.0 ng/g and 26.4 ng/g | Brain concentration, Final ([1]; IP 10 mg/kg, brain, 360 min, individual animals): 33.7 ng/g and 18.5 ng/g | Brain concentration, Final ([1]; IP 10 mg/kg, brain, 480 min, individual animals): 9.82 ng/g and 13.1 ng/g and 57.1 ng/g | Plasma concentration, Final ([1]; IP 10 mg/kg, plasma, 5 min, individual animals): 937 ng/mL and 1166 ng/mL | Plasma concentration, Final ([1]; IP 10 mg/kg, plasma, 15 min, individual animals): 5726 ng/mL and 4307 ng/mL | Plasma concentration, Final ([1]; IP 10 mg/kg, plasma, 30 min, individual animals): 6345 ng/mL and 8215 ng/mL | Plasma concentration, Final ([1]; IP 10 mg/kg, plasma, 60 min, individual animals): 5152 ng/mL and 8232 ng/mL | Plasma concentration, Final ([1]; IP 10 mg/kg, plasma, 120 min, individual animals): 1532 ng/mL and 4227 ng/mL and 3400 ng/mL | Plasma concentration, Final ([1]; IP 10 mg/kg, plasma, 240 min, individual animals): 751 ng/mL and 1518 ng/mL and 1407 ng/mL | Plasma concentration, Final ([1]; IP 10 mg/kg, plasma, 360 min, individual animals): 1143 ng/mL and 957 ng/mL | Plasma concentration, Final ([1]; IP 10 mg/kg, plasma, 480 min, individual animals): 516 ng/mL and 763 ng/mL and 2398 ng/mL | Plasma concentration, Final ([1]; IP 10 mg/kg, plasma, 1440 min, individual animals): 250 ng/mL and 0 ng/mL | IC50 ([2]; PRESTO-Tango IC50 (nM)): 302 nM | Ki ([2]; calculated using the Cheng Prusoff equation, read-out: PRESTO-Tango Ki*): 60.4 nM | off-target activity at prostaglandin D2 receptor [3]: no off-target activities
